# Measurements from ChEMBL document CHEMBL3507680, “University of Dundee, Gates Library screen for HepG2 cell viability”.
# Assay: Human HepG2 cell viability assay in 384 well format
# Format: toxicity, cell-based
# Design: dose 125 nL, time 70.5 hour; concentration not given beside the values
# Settings: HepG2 cells, read-out: Inhibition
row,Compound,cytotoxicity at 70.5 h
1,Cc1nc2ccccn2c1CC(=O)N[C@@H]1CCC[C@@H](N2CCCC2)[C@@H]1O,-1.64%
2,CN(C(=O)c1ccn(C)n1)[C@@H]1CCC[C@@H](Oc2ccccc2)[C@@H]1O,-4.51%
3,O[C@H]1CN(CCOc2ccc(F)cc2)CC[C@@]12CCCO2,-2.62%
4,CS(=O)(=O)c1cn[nH]c1C1CCCN1C(=O)c1cccnc1 (stereo not drawn),-2.09%
5,O=C(N[C@@H]1CCC[C@@H](N2CCOCC2)[C@@H]1O)c1ncccn1,6.75%
6,O=S(=O)(c1ccc(F)cc1)N1CCCC(c2nccs2)C1 (stereo not drawn),-2.41%
7,O=S(=O)(c1ccccc1)N1CCCC(c2nccs2)C1 (stereo not drawn),-2%
8,COCC(=O)N1CCCC1c1nc(O)cc(C(C)C)n1 (stereo not drawn),1.53%
9,COCCC(=O)N1CCCC1c1nc(O)cc(C(C)C)n1 (stereo not drawn),-0.774%
10,CC(C)c1cc(O)nc(C2CCCN2C(=O)C(C)(C)C)n1 (stereo not drawn),26.4%
11,CC(C)c1cc(O)nc(C2CCCN2C(=O)C2CC2)n1 (stereo not drawn),-1.44%
12,CS(=O)(=O)c1cn[nH]c1C1CCCCN1C(=O)c1ccsc1 (stereo not drawn),-1.64%
13,O=S(=O)(c1cccs1)N1CCCC(c2nccs2)C1 (stereo not drawn),-3.29%
14,CC(=O)N1CCC(C(=O)N2CCCC(Cc3ccccn3)C2)CC1 (stereo not drawn),-8.43%
15,Cc1cc(C)nc(C2CCCN2c2ccnc(C)n2)n1 (stereo not drawn),-0.201%
16,CNC(=O)c1cn[nH]c1C1(C)CCCN(Cc2ccccn2)C1 (stereo not drawn),-7.3%
17,CCCn1cc(CN2CCCC2c2cccc(-n3ccnc3)n2)cn1 (stereo not drawn),-7.28%
18,CN1CCC(NC(=O)C2CN(c3cncnc3)CCO2)CC1 (stereo not drawn),-7.93%
19,Cc1noc(C2(C)CCCN(C(=O)c3cnn(C)c3)C2)n1 (stereo not drawn),-7.96%
20,COCc1nc(C2CCN(Cc3nccn3C)CC2)no1,-4.44%
21,CCN(Cc1ccncc1)CC1(O)CCN(C(=O)c2cnn(C)c2)C1 (stereo not drawn),-4.91%
22,Cc1nc(Nc2nncs2)cc(C2CCCN2C)n1 (stereo not drawn),3.74%
23,CCc1nnc(Nc2cccc(C3CCN(CC4CC4)CC3)n2)s1,-7.67%
24,CN(C)C(=O)CN1CCCCC1c1nc(N)ncc1-c1ccc(Cl)cc1 (stereo not drawn),-15.8%
25,Cc1cc(N)nc(C2(C)CCCN2C(=O)c2cnccn2)n1 (stereo not drawn),4.65%
26,Cc1nc(Nc2nnc(C)s2)cc(C2CCCN2c2ccncn2)n1 (stereo not drawn),-8.94%

row,Compound,cytotoxicity at 70.5 h
1,NC(=O)CN1CCC(c2cncc(-c3cccc(Cl)c3)n2)CC1,15.3%
2,Cc1nc(Nc2ncccn2)cc(C2CCN(CC(C)C)C2)n1 (stereo not drawn),-15.1%
3,CCC(=O)N1CCC(Cc2ccccc2-c2ccccc2F)(C(N)=O)C1 (stereo not drawn),-8.54%
4,CCC(=O)N1CCC(Cc2ccccc2-c2cccc(C)c2)(C(N)=O)C1 (stereo not drawn),12.2%
5,CCN(CC(O)c1ccc(C)cc1)C(=O)NC(C)C (stereo not drawn),-1.93%
6,CCN1CCN(c2cncc(Cl)n2)CC1,26.6%
7,CC(C)(C)c1ncc(CNCC2CN(C3CC3)CCO2)s1 (stereo not drawn),-2.48%
8,COCCNC(=O)CN(C)C(C)c1nc(C)no1 (stereo not drawn),3.14%
9,CCc1nc(CSCc2csc(CS(C)(=O)=O)n2)cs1,-1.17%
10,CCN(C)C(=O)c1cccc(C(=O)N(C)Cc2cccc(O)c2)c1,25.8%
11,CC(C)CN(CC(O)c1ccccc1)C(=O)NC(C)C (stereo not drawn),-4.36%
12,CC(C)c1ccc(CNC(c2ccc(F)cn2)C(C)C)cc1 (stereo not drawn),0.89%
13,CCN1CCOC(CNCc2ccc(C)s2)C1 (stereo not drawn),-4.21%
14,CC1CCN(C(=O)CSCCN2CCOCC2)CC1,4.07%
15,COc1ccccc1CC(C)CC(=O)NS(=O)(=O)C(C)C (stereo not drawn),9.2%
16,Cc1cc(C)cc(NCCC(=O)NC2CCCCC2)c1,1.57%
17,O=C(C(c1ccccc1)S(=O)(=O)c1ccccn1)N1CCCC1 (stereo not drawn),-2.5%
18,Cc1cccc(-c2ccc(C(=O)N3CCSCC3)c(=O)[nH]2)c1,0.198%
19,O=C(CCNc1ccccc1)NC1CCN(C(=O)C2CCCCC2)CC1,-5.78%
20,Cc1cnn(CC2CN(CC(=O)Nc3c(C)nn(C)c3C)CCO2)c1 (stereo not drawn),-4.95%
21,CC(C)OCCC(=O)NS(=O)(=O)N1CCOc2ccccc21,-0.303%
22,Cc1cc(NC(=O)CNC2CCc3ncnn3C2)on1 (stereo not drawn),9.31%
23,CCCS(=O)(=O)NCC(O)c1c(Cl)cccc1Cl (stereo not drawn),-0.597%
24,O=C(NC1CCN(CC2CC2)C1)N1CCC(OC2CCCCC2)CC1 (stereo not drawn),14.5%
25,O=C(NC1CCN(CC2CCCC2)C1)N1CCC(OCC2CC2)CC1 (stereo not drawn),6.83%
26,Cn1cc(CNC2CCCOc3c2ccc2ccccc32)cn1 (stereo not drawn),2.1%

row,Compound,cytotoxicity at 70.5 h
1,O=S(=O)(Cc1ccccc1Cl)CC(O)CO (stereo not drawn),4.74%
2,O=S(=O)(CCO)CCc1ccccc1Cl,-9.35%
3,Cc1ncccc1NS(=O)(=O)Cc1cccc(F)c1,-2.53%
4,Cc1nc2cc(NCc3cnn(C)c3)ccc2n1C,-2.05%
5,Cc1ccc(Br)cc1NC(=O)NC1CCC2(C1)OCCO2 (stereo not drawn),18.1%
6,COc1cc(Cl)c(CN2CCC(C(N)=O)C2)cc1Cl (stereo not drawn),4.93%
7,CC1CCN(S(=O)(=O)N2CCCN(CC3CCCO3)CC2)CC1 (stereo not drawn),13.3%
8,CN1CCCC(CNC(=O)N(C)Cc2ccc(Cl)c(F)c2)C1 (stereo not drawn),7.7%
9,CCOC(C)c1nccn1Cc1cc(C)on1 (stereo not drawn),-1.6%
10,CC(NCCn1cccn1)c1ccccc1Cl (stereo not drawn),10.3%
11,O=C(CSCc1ccccn1)NCC1CC1,0.905%
12,CCC(O)(CNCc1cc[nH]n1)c1ccc(Br)cc1 (stereo not drawn),6.78%
13,Cc1c(NCc2ccccc2C#N)cccc1-n1cnnn1,-3.47%
14,CC(C(=O)NC1CC1)S(=O)(=O)Cc1noc(C(C)(C)C)n1 (stereo not drawn),-1.87%
15,CC(C)N(C)S(=O)(=O)NCc1cccnc1N(C)C,-4.22%
16,CC(C(=O)NC1CC1)S(=O)(=O)Cc1nc(Cc2ccccc2)no1 (stereo not drawn),-0.763%
17,CC(C(=O)NC1CCCC1)S(=O)(=O)Cc1noc(C(C)(C)C)n1 (stereo not drawn),7.9%
18,c1ccc2c(c1)OCCC2NCc1ccc(N2CCOCC2)cc1 (stereo not drawn),-2.79%
19,O=C(c1cccnc1O)N1CCOC(c2ccc(Cl)cc2)C1 (stereo not drawn),-0.483%
20,Cc1cc(N(Cc2cccnc2)C2CC2)n2nc(C(F)(F)F)nc2n1,9.82%
21,CN1CCC(CNC(=O)NCc2ccc(N(C)C)cc2)CC1,-2.97%
22,O=C1CSc2ccc(C(=O)N3CCCC(n4cccn4)C3)cc2N1 (stereo not drawn),-0.55%
23,Fc1ccc2c(c1)CCC2NCc1ccc(N2CCOCC2)cc1 (stereo not drawn),7.55%
24,O=C1COc2cc(C(=O)N3CCCC(n4ccnc4)C3)ccc2N1 (stereo not drawn),-1.66%
25,COc1ccc(-c2noc(C3=NN(C)C(=O)CC3)n2)cc1OC,-3.46%
26,CCCC(C)CS(=O)(=O)NCc1cccnc1OC (stereo not drawn),1.49%

row,Compound,cytotoxicity at 70.5 h
1,CC(C)Cc1nc(CN2CCC(N3CCN(C)C3=O)CC2)no1,-1.18%
2,Cc1ccc(OCc2cccc(C(=O)N(C)C(C)CC#N)c2)cn1 (stereo not drawn),0.55%
3,CN1N=C(c2nc(Cc3cccc(Br)c3)no2)CCC1=O,-2.2%
4,Cc1[nH]ncc1CCCNC(=O)N1CCN2CCCCC2C1 (stereo not drawn),8.45%
5,CCc1oc(C(=O)N2CCCC(c3nnn[nH]3)C2)cc1C (stereo not drawn),-4.85%
6,COc1ccc(Cc2noc(C3=NN(C)C(=O)CC3)n2)cc1OC,-2.26%
7,COCCN(Cc1noc(-c2ccc(OC)cc2)n1)C1CC1,-0.841%
8,CCN(CC(C)C#N)C(=O)c1cccc(COc2ccc(C)nc2)c1 (stereo not drawn),-4.47%
9,N#CCCN(CC1CCOC1)Cn1ccc(-c2ccsc2)n1 (stereo not drawn),0.369%
10,CC(C(=O)N1CCCC1)S(=O)(=O)Cc1noc(C(C)(C)C)n1 (stereo not drawn),-2.28%
11,CC(O)CN1CCC(CN(C)Cc2cc(F)cc3cccnc23)CC1 (stereo not drawn),-2.25%
12,O=C(c1cnc(-c2ccccc2)s1)N1CCC2(CC1)OCCO2,7.39%
13,Cc1cc(C)n(CC(C)CNC(=O)NCc2ccco2)n1 (stereo not drawn),-10.4%
14,CCN(CC)S(=O)(=O)c1cc(NC(=O)CCc2cscn2)ccc1C,-6.12%
15,CC(C)CC(NC(=O)CN(C)C(=O)c1ccco1)c1cccs1 (stereo not drawn),-9.94%
16,CC(C)CC(NC(=O)CN(C)c1cnccn1)c1cccs1 (stereo not drawn),-6.01%
17,CCC(=O)NC(CC(C)C)c1cccs1 (stereo not drawn),-14%
18,Oc1cccc(CNCCC2CCCO2)c1 (stereo not drawn),-12.5%
19,CC(C)N(C)C(=O)C1CSCN1S(=O)(=O)c1ccccc1F (stereo not drawn),-9.21%
20,Cn1ccc(C(=O)Nc2cccc(-c3ccc4c(c3)CCO4)n2)cc1=O,-20.6%
21,O=C1C=CC=N/C1=C(/O)NCCNS(=O)(=O)N1CCCCCC1,-9.06%
22,Clc1ccccc1OCCc1cc(C2CCNC2)n[nH]1 (stereo not drawn),-4.47%
23,Cc1csc(CCNCc2cnc3c(c2)c(C)nn3C)n1,5.91%
24,O=C1CC(NCc2cnc(N3CCCC3)nc2)CN1c1ccccc1 (stereo not drawn),1.08%
25,Cc1nc(Nc2cnccn2)cc(C2CN(C(C)C)C2)n1,-6.87%
